# Laboratory results: patent US20040121947A1, “Compounds which inhibit beta-secretase activity and methods of use thereof” (Oklahoma Medical Research Foundation, priority 2000, published 2004)
# Where “and” joins values, the source holds several entries; their conditions need not be identical. Equal values may be shown once. Read-outs that look alike come from different tables or passages of the source.
# Experiments:
# [1] = target: T1, memapsin 2 (Homo sapiens, UniProt P56817); test: Inhibition of memapsin 2 proteolytic activity, fluorogenic substrate FS-2; format: biochemical; settings: for % Inhibition Mep2: enzyme concentration equals the compound concentration; for Selectivity: Ki for memapsin 2 lower than Ki for memapsin 1: memapsin 2 relative to memapsin 1; for % Inh (M1/M2): ratio of % inhibition memapsin 1 / memapsin 2, 1 or less = greater inhibition of memapsin 2; for Vi/Vo: ratio of initial cleavage velocities of FS-2 with/without compound, enzyme and inhibitor concentrations equal (e.g., about 80 nM, 100 nM)
# T1 construct: pET-11 vector-derived residues 1-15 of promemapsin 2-T1 (N, cleaved yes); made in house; host or cells: E. coli
# T1 sequence (P56817 41-454 limits assumed): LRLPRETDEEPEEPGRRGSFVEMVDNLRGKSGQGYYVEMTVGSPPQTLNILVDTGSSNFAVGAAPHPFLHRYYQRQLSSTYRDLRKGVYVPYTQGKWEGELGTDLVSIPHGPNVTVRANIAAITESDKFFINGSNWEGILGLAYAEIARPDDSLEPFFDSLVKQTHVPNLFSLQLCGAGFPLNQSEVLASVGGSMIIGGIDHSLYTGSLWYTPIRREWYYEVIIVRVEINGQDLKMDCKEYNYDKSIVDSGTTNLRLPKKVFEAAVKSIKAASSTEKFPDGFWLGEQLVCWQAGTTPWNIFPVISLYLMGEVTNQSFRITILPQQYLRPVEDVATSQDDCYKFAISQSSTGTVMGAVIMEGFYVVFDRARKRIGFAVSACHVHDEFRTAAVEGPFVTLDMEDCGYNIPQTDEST
# Procedure, shortened: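 Spontaneously activated memapsin 2 (80 nM final) equilibrated with inhibitor (about 10 nM–10 μM) in 0.1 M NaOAc pH 4.0 with 10% DMSO for 20 min at 37 °C, with fluorogenic substrate FS-2. Ki converted from Ki apparent using substrate concentration and Km.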
# [2] = target: T2, memapsin 1 (Homo sapiens, UniProt Q9Y5Z0); test: Inhibition of memapsin 1 proteolytic activity, fluorogenic substrate FS-2; format: biochemical; settings: for % Inhibition Mep1: enzyme concentration equals the compound concentration
# T2 construct: pET-11 vector-derived residues 1-14 of promemapsin 1-T1 (N, cleaved yes); made in house; host or cells: E. coli
# T2 sequence (Q9Y5Z0 63-466 limits assumed): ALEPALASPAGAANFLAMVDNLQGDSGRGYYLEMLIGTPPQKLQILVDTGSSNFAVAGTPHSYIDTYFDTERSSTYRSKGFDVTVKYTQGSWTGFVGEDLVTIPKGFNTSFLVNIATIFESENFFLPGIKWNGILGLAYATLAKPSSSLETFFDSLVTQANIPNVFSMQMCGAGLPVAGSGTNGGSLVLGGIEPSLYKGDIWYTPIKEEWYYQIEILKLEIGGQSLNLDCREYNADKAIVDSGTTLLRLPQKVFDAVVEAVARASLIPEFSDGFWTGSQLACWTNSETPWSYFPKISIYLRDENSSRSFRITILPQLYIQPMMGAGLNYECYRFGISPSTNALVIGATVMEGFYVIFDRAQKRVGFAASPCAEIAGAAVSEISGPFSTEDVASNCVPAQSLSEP
# Procedure: Vi/Vo depicts the ratio of initial cleavage velocities of the substrate FS-2 (Ermolieff, et al., Biochemistry […]:12450-12456 (2000)) by memapsin 1 or memapsin 2 in the absence (Vo) or presence (Vi) of a compound of the invention. […] The Vi/Vo values depicted in Table 1 were determined at conditions under which the enzyme and inhibitor concentrations were equal (e.g., about 80 nM, 100 nM).
# The relationship of Ki (independent of substrate concentration) to Kiapp is a function of substrate concentration in the assay and the Km for cleavage of the substrate by either memapsin 1 or memapsin 2 by the relationship:
# An aliquot of the inhibitor of known concentration in DMSO was diluted into 1.8 ml 0.1 M NaOAc, pH 4.0. DMSO and added to a final concentration of 10% (v/v), and memapsin 2 (final concentration of 80 nM), followed by a 20 minute equilibration at 37° C. Compounds were evaluated for the ability to inhibit memapsin 1 and memapsin 2 at concentrations between about 10 nM and about 10 μm of inhibitor.
# The relationship of Ki (independent of substrate concentration) to Kiapp is a function of substrate concentration in the assay and the Km for cleavage of the substrate by either memapsin 1 or memapsin 2 by the relationship: […]
# [3] = tested on: plasma Aβ40; test: Inhibition of Aβ production in transgenic mouse model of Alzheimer's disease (plasma Aβ40 ELISA); format: in vivo, APP/F mice; settings: for Sustainment of inhibition of plasma Aβ40: over a 24-h period; for Blood brain barrier penetration (from reduction of plasma Aβ): transgenic mice; for Decrease in plasma Aβ40: within 30 minutes following i.p. injection of about 163 nanomoles
# Procedure: Compounds MMI-138, MMI-165, and MMI-185 were synthesized as described above. Compounds were dissolved in 1 ml of dimethyl sulfoxide (DMSO) to a final concentration of about 1 mg/ml for MMI-165 and MMI-185, and about 10 mg/ml for MMI-138. […] Inhibitors were diluted into PBS or H2O immediately prior to injection, as described below. Inhibition constants were determined by methods described by Ermolieff, et al. (Biochem. 39:12450-12456 (2000), the teachings of which are incorporated hereby in their entirety).
# The tg2576 strain of mice was obtained from Taconic (Germantown, N.Y.). The APP/F strain of mice were obtained by mating the tg2576 mice with the FVB/N strain. To determine presence of the Swedish APP gene in APP/F mice, the DNA from mice was isolated according to the Qiagen Dneasy™ Tissue Kit. PCR (Qiagen kit and protocol) was used to amplify the fragment of DNA corresponding to the human Swedish APP gene. The following primers were used: […]
# At the age of three months, animals of the Alzheimer's disease mouse model APP/F were injected intraperitoneally (i.p.) with about 163 nanomoles of either compounds MMI-138 (molecular weight 674 g/mole; 110 μg per animal, n=2), MMI-165 (molecular weight 626 g/mole; 102 μg per animal, n=2), or MMI-185 (molecular weight 686; 112 μg per animal, n=2).
# Heparinized capillary tubes collected blood samples from anesthetized animals from either the retro-orbital sinus or from the saphenous vein at specified intervals following injection. The blood samples were transferred to sterile 1.5 mL microcentrifuge tubes, centrifuged at 5,100 RPM for 10 minutes to recover the plasma (supernatant), and stored at −70° C. until analysis for the Aβ40 by Enzyme Linked-Immuno-Sorbent Assay (ELISA).
# A sandwich ELISA (BioSource International, Camarillo, Calif.) was used to determine the levels of Aβ40 in plasma samples. The ELISA utilizes a primary antibody specific for human Aβ for the immobilization of the amino-terminus and a detection antibody specific for the carboxy-terminal amino acids of Aβ40. A conjugated secondary antibody was used to detect the ternary complex, using a stabilized chromogen substrate, quantifiable following addition of 1 M HCl, with the optical densities measured at 450 nm. The procedures were followed according to the BioSource protocol. Optical densities were converted to pg/ml quantities of Aβ40 using a linear regression of the optical densities of standards obtained from the commercial kit, to their known concentrations.
# [4] = Table 9, read-out: Ki apparent Mep2
# [5] = memapsin 2, apparent Ki in presence of substrate FS-2, read-out: Ki app
# [6] = memapsin 2, independent of substrate, converted from Ki apparent, read-out: Ki
# [7] = Table 9, read-out: Ki apparent Mep1
SMILES,"Ki [1, 4] [nM]",% Inhibition Mep2 [1] [%],"Ki [1, 5] [nM]","Ki ([1]; memapsin 2, read-out: Ki)",Selectivity: Ki for memapsin 2 lower than Ki for memapsin 1 [1],Selectivity: Ki for memapsin 2 lower than Ki for memapsin 1 ([1]; listed as 138),% Inh (M1/M2) [1],% Inhibition Mep1 [2] [%],Ki ([2]; read-out: Ki for memapsin 1) [nM],Blood brain barrier penetration (from reduction of plasma Aβ) [3],"Ki [1, 6] [nM]",Vi/Vo [1],"Ki ([1]; Ki, [I] < 100, memapsin 2, [I] < 100 (nM)) [nM]","Ki [2, 7] [nM]",Sustainment of inhibition of plasma Aβ40 [3],Decrease in plasma Aβ40 [3] [%]
CSCC[C@H](NC(=O)OCn1nc(C)cc1C)C(=O)N[C@@H](CC(C)C)[C@@H](O)C[C@@H](C)C(=O)N[C@H](C(=O)NCc1ccccc1)C(C)C [MMI-138],14.2,72,14.2,14.2 nM and 8.8 nM,about 60 fold,about 60 fold,0.10,7,811,penetrated the blood brain barrier,,,,,remained nearly constant,57
CSCC[C@H](NC(=O)OCn1nc(C)cc1C)C(=O)N[C@@H](CC(C)C)[C@@H](O)C[C@@H](C)C(=O)N[C@H](C(=O)NC(C)C)C(C)C [MMI-165],24.5,60,24.5,15.3 nM,,,0.45,27,,penetrated the blood brain barrier,15.3,0.4,,,remained nearly constant,46
CCCCNC(=O)[C@@H](NC(=O)[C@H](C)C[C@H](O)[C@H](CC(C)C)NC(=O)[C@H](CCSC)NC(=O)OCn1nc(C)cc1C)C(C)C [MMI-167],,44,36.6,,,,0.18,8,,,22.8,0.56,,,,
CSCC[C@H](NC(=O)OCn1nc(C)cc1C)C(=O)N[C@@H](CC(C)C)[C@@H](O)C[C@@H](C)C(=O)N[C@@H](CC(C)C)C(=O)NC(CF)CF [MMI-171],,45,63.9,,,,0.18,8,,,40,0.55,,,,
CSCC[C@H](NC(=O)OCCn1nc(C)cc1C)C(=O)N[C@@H](CC(C)C)[C@@H](O)C[C@@H](C)C(=O)N[C@@H](CC(C)C)C(=O)NCC(C)C [MMI-176],,47,111,,,,0,0,,,69.1,1,,,,
CSCC[C@H](NC(=O)OCCn1nc(C(C)C)cc1C(C)C)C(=O)N[C@@H](CC(C)C)[C@@H](O)C[C@@H](C)C(=O)N[C@H](C(=O)NCC(C)C)C(C)C [MMI-180],,26,,,,,0,0,,,,0.74,,,,
CSCC[C@H](NC(=O)OCn1nc(C)cc1C)C(=O)N[C@@H](CC(C)C)[C@@H](O)C[C@]1(C)CCN([C@@H](CC(C)C)C(=O)NCC(C)C)C1=O [MMI-181],,47,393,,,,0.19,9,,,246,0.53,,,,

# Now from value to compound, other results behind:
"Ki [1, 4] [nM]",% Inhibition Mep2 [1] [%],"Ki [1, 5] [nM]","Ki ([1]; memapsin 2, read-out: Ki)",Selectivity: Ki for memapsin 2 lower than Ki for memapsin 1 [1],Selectivity: Ki for memapsin 2 lower than Ki for memapsin 1 ([1]; listed as 138),% Inh (M1/M2) [1],% Inhibition Mep1 [2] [%],Ki ([2]; read-out: Ki for memapsin 1) [nM],Blood brain barrier penetration (from reduction of plasma Aβ) [3],"Ki [1, 6] [nM]",Vi/Vo [1],"Ki ([1]; Ki, [I] < 100, memapsin 2, [I] < 100 (nM)) [nM]","Ki [2, 7] [nM]",SMILES,Sustainment of inhibition of plasma Aβ40 [3],Decrease in plasma Aβ40 [3] [%]
,34,447,,,,0,0,,,280,0.66,72.7,,CCCCNC(=O)[C@H](C(C)C)N1CC[C@@](C)(C[C@H](O)[C@H](CC(C)C)NC(=O)[C@H](CCSC)NC(=O)OCn2nc(C)cc2C)C1=O [MMI-182],,
,,7.23,4.5 nM,,,,,,penetrated the blood brain barrier,4.52,,,,COCC[C@H](NC(=O)[C@H](CC(C)C)NC(=O)OC(C)(C)C)C(=O)N[C@@H](CC(C)C)[C@@H](O)C[C@@H](C)C(=O)N[C@@H](CC(C)C)C(=O)NC(C)C [MMI-185],appeared to return to initial level,63
28.8,,28.8,,,,,,,,18,,,351,CSCC[C@H](NC(=O)C(C)Cn1nc(C)cc1C)C(=O)N[C@@H](CC(C)C)[C@@H](O)C[C@@H](C)C(=O)N[C@H](C(=O)NCC(C)C)C(C)C (stereo partly drawn) [MMI-196],,
27.4,,27.4,,,,,,,,17.1,,,1030,CSCC[C@H](NC(=O)C(Cn1nc(C)cc1C)C(C)C)C(=O)N[C@@H](CC(C)C)[C@@H](O)C[C@@H](C)C(=O)N[C@H](C(=O)NCC(C)C)C(C)C (stereo partly drawn) [MMI-204],,
